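Method: 48-hour compound exposure of cells in 96-well plates, five concentrations, linear interpolation of endpoints. At the GI50, growth is halved.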 Activity calls are given as the source filed them. No stated cut-off is given here; in the data, active = GI50 up to about 1.1 µM and inactive = higher.
Legend:
Experiment in all cases: NCI tumour cell line growth inhibition, 48 h
[1] = system: HCT-116
[2] = system: LOX IMVI
[3] = system: HOP-62
[4] = system: K562
[5] = system: SN12C
[6] = system: NCI-H23
[7] = system: KM12
[8] = system: SK-MEL-2
[9] = system: SF-295
[10] = system: A549
[11] = system: HL-60
[12] = system: U-251
[13] = system: EKVX
[14] = system: RXF 393
[15] = system: OVCAR-3
[16] = system: OVCAR-4
[17] = system: IGROV-1
[18] = system: NCI-H522
[19] = system: NCI-H226

Measured: GI50

O=C1C2C3C=C4c5ccccc5N(c5ccccc5)C4(C2C(=O)N1Cc1ccccc1)C1C(=O)N(Cc2ccccc2)C(=O)C31 (centres undefined)
inactive: [1] > 100 µM | [2] 78.9 µM | [3] > 10 µM | [4] > 100 µM | [5] > 100 µM | [6] > 100 µM | [7] > 100 µM | [8] > 100 µM | [9] 64 µM | [10] > 100 µM | [11] > 100 µM | [12] > 100 µM

O=C(OCc1ccccc1)OOC(=O)OCc1ccccc1
inactive: [1] > 100 µM | [13] > 100 µM | [14] > 100 µM | [3] > 100 µM | [15] > 100 µM | [4] > 100 µM | [16] > 100 µM | [5] > 100 µM | [17] > 100 µM | [6] > 100 µM | [18] > 100 µM | [7] > 100 µM | [8] > 100 µM | [9] > 100 µM | [10] > 100 µM | [11] > 100 µM | [12] > 100 µM

COc1c2c(cc3c(CCc4ccccc4)cc(=O)oc13)CCC(C)(C)O2
inactive: [19] > 100 µM | [1] > 100 µM | [2] > 100 µM | [13] > 100 µM | [14] > 100 µM | [3] > 100 µM | [15] > 100 µM | [4] > 100 µM | [5] > 100 µM | [17] > 100 µM | [6] > 100 µM | [7] > 100 µM | [8] > 100 µM | [9] > 100 µM | [11] > 100 µM | [12] > 100 µM

C[Si](C)(C)/C(I)=C/CO
inactive: [19] 20.4 µM | [1] 14.3 µM | [2] 19.3 µM | [13] 29.9 µM | [15] 24.7 µM | [4] 19.4 µM | [16] 38.3 µM | [5] 22 µM | [17] 25.1 µM | [6] 18 µM | [18] 16.1 µM | [7] 23 µM | [8] 19.7 µM | [9] 24.9 µM | [10] 24.1 µM | [12] 18.3 µM

O=S1(=O)CC#CC[C@@H](CO)[C@@H](CO)CC#CC1
inactive: [1] 61.2 µM | [2] 69.3 µM | [13] > 100 µM | [14] > 100 µM | [3] > 100 µM | [15] > 100 µM | [4] 59 µM | [16] > 100 µM | [5] > 100 µM | [17] 43.1 µM | [6] > 100 µM | [18] 17.9 µM | [7] > 100 µM | [8] > 100 µM | [9] > 100 µM | [10] > 100 µM | [11] 53.7 µM | [12] > 100 µM

— ChEMBL document CHEMBL1201862, “PubChem BioAssay data set” (2004)
